Where “and” joins values, the source holds several entries; their conditions need not be identical. Equal entries are not always repeated. Where two headings read alike, the source gives them in different places.
Columns and labels:
ciPTEC-OAT1 = assay: MTT viability assay in ciPTEC-OAT1; format: cell-based, human; conditions: for Cell viability (MTT) relative to no exposure: ciPTEC-OAT1, 1 mM, 48 h; for IC50: serum free medium, mean ± SEM, n ≥ 3
OAT1 [1] = target: T1, OAT1 (Homo sapiens, UniProt Q4U2R8)
T1 sequence (Q4U2R8 1-550 isoform Q4U2R8-2): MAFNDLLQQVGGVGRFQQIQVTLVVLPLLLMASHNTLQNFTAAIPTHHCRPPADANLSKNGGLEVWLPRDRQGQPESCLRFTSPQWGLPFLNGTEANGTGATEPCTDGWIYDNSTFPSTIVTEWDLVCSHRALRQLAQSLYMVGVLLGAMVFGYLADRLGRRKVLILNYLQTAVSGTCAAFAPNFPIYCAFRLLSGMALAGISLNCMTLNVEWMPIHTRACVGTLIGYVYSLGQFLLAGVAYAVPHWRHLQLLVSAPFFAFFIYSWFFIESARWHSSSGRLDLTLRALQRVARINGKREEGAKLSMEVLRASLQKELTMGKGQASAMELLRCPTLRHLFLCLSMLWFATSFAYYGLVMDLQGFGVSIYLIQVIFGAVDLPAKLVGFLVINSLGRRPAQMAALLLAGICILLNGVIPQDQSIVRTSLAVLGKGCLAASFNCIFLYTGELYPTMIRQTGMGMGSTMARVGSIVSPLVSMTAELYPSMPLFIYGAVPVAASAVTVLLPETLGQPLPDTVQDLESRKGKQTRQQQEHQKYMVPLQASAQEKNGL

CHO-OAT1 = target: T2, CHO-OAT1 (Homo sapiens, UniProt Q4U2R8); conditions: read-out: KI (literature), cited from earlier work
T2 construct: host or cells: CHO
T2 sequence (Q4U2R8 1-563): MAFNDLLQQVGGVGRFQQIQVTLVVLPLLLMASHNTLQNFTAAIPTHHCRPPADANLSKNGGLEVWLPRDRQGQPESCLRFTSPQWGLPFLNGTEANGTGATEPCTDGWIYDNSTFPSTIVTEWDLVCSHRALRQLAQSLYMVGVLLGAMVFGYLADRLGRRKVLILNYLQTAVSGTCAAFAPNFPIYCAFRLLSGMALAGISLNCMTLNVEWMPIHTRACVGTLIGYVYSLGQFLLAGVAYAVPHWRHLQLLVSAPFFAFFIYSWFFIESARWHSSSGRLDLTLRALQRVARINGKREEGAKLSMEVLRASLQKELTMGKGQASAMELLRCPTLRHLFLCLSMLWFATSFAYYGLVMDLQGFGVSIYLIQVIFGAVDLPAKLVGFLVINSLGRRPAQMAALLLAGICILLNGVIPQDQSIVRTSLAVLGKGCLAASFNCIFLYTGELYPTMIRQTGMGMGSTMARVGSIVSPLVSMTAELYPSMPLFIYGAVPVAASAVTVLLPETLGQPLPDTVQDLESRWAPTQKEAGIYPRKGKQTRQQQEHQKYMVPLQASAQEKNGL

HeLa-OAT1 = target: T3, HeLa-OAT1 (Homo sapiens, UniProt Q4U2R8); conditions: substrate PAH, HeLa-OAT1, Ref. 29; read-out: IC50 (literature); cited from earlier work
T3 construct: host or cells: HeLa
T3 sequence (Q4U2R8 1-563): T2 sequence (Q4U2R8 1-563)

hOAT1-CHO and HEK-OAT1 = conditions: Ref 35, 37, cited from earlier work
OAT3 = target: T4, OAT3 (Homo sapiens, UniProt Q8TCC7)
T4 sequence (Q8TCC7 1-542): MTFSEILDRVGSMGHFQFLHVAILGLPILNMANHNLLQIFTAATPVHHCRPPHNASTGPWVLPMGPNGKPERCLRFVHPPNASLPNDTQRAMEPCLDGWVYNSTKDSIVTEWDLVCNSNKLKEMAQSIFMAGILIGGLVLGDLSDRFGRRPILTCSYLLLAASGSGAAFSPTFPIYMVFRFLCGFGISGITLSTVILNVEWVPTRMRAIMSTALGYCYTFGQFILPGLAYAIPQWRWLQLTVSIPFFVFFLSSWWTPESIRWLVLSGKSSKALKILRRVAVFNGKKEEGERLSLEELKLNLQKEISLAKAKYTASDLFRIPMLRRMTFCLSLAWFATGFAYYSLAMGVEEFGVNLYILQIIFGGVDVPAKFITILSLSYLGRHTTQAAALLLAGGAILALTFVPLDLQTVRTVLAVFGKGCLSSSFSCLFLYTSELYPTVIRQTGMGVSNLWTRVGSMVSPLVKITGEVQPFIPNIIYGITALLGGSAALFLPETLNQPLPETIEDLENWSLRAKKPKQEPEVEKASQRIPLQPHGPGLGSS

OCT2 = OCT2 (Homo sapiens, UniProt O15244); conditions: ASP+ 1 μM, 60 min, HBSS, 37° C.; similar IC50 in ciPTEC parent, ciPTEC-OAT1 and ciPTEC-OAT3 (p>0.05)
Chain of OCT2 (O15244 whole entry): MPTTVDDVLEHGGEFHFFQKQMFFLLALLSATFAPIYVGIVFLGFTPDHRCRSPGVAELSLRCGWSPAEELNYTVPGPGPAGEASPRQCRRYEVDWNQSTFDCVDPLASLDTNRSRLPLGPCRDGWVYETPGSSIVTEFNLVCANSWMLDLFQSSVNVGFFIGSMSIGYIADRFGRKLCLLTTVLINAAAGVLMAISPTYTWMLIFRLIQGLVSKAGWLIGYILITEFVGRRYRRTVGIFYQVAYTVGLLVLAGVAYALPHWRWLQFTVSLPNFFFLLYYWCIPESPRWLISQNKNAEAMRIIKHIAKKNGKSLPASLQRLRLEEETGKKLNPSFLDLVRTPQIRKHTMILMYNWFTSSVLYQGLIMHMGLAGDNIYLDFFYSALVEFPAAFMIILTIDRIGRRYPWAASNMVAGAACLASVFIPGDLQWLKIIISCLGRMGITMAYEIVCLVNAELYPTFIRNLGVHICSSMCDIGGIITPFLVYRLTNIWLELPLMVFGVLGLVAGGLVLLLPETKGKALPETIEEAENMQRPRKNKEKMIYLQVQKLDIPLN

Xenopus-OAT3 = target: T5, Xenopus-OAT3 (Homo sapiens, UniProt Q8TCC7); conditions: substrate estrone sulfate, Xenopus-OAT3, References 50, 53; read-out: IC50 (literature); cited from earlier work
T5 construct: host or cells: Xenopus oocytes
T5 sequence (Q8TCC7 1-542): T4 sequence (Q8TCC7 1-542)

CHO-OAT3 = target: T6, CHO-OAT3 (Homo sapiens, UniProt Q8TCC7); conditions: substrate Sitagliptin, CHO-OAT3, Reference 51; read-out: IC50 (literature); cited from earlier work
T6 construct: host or cells: CHO
T6 sequence (Q8TCC7 1-542): T4 sequence (Q8TCC7 1-542)

ciPTEC-OAT3 = assay: MTT viability assay in ciPTEC-OAT3
Description: (§1) Briefly, monolayers of ciPTEC (96-wells) were exposed to antivirals in serum-free medium (SFM) on day 6 of maturation. Cell toxicity was analyzed further in presence of multidrug resistance protein (MRP) efflux inhibitor MK571 (5 μM) and breast cancer resistance protein (BCRP) efflux inhibitor KO143 (10 μM). After incubation for 24, 48 and 72 h at 37° C., ciPTEC were washed and incubated with 0.5 mg/ml thiazolyl blue tetrazolium bromide (MTT, Sigma) for 3 h at 37° C. in absence of antivirals. Formazan crystals formed in viable cells were dissolved in dimethyl sulfoxide (DMSO, Merck, Whitehouse Station, USA) and optical density was measured (560 nm, background at 670 nm was subtracted) using Benchmark Plus (Bio-Rad, Hercules, USA).
(§2) Non-linear regression with variable slope constraining the top to 100% was used to fit the data after background subtraction with GraphPad Prism. Statistics was performed by two-way ANOVA (two-tailed, α=0.05) using GraphPad Prism as well. All data is presented as mean±SEM of at least three separate experiments (n=3) performed in triplicate, unless stated otherwise.

ciPTEC parent = assay: MTT viability assay in ciPTEC parent; format: cell-based, human; conditions: 10×Cmax (50 μM), with MRP4 inhibitor MK571 and BCRP inhibitor KO143
Description: as §1, §2

[2] = Varma et al., 2009; cited from earlier work
OAT1 [3] = assay: OAT1 gene expression in ciPTEC-OAT1 with or without EGF (quantitative PCR); format: cell-based, human; conditions: ciPTEC-OAT1, EGF 10 ng/mL, 48 hours
Description: ciPTEC-OAT1. 4B2 DSM ACC3279 was cultured in phenol red-free DMEM/F12 (Invitrogen, Breda, The Netherlands), as described in example 1 here above. Cells were seeded at a density of 63,000 cell/cm^2, cultured for 24 hours at 33° C. and subsequently at 37° C. for 7 days. To study the effects of EGF, matured ciPTEC-OAT1 were treated for 48 hours in the presence or absence of EGF (10 ng/mL).
OAT1 gene expression profiling was performed by isolating total RNA from cells grown in six-well plates, using an RNeasy Mini kit (Qiagen, Venlo, The Netherlands), according to the manufacturers specifications. Subsequently, cDNA was synthesized using the Omniscript RT-kit (Qiagen). Subsequently, quantitative PCR was performed in a CFX96 Real-Time PCR detection system (Bio-rad, Veenendaal, The Netherlands) according to the manufacturers conditions. GAPDH was used as reference gene for normalization and relative expression levels were calculated as fold change using the 2^−ΔΔCT method. The primer-probe sets for the quantitative PCR were obtained from Applied Biosystems: GAPDH—hs99999905 ml and OAT1—hs00537914.

[4] = 120 h, read-out: Inhibitory potency on cell viability, literature 120 h
[5] = read-out: Inhibitory potency on cell viability, literature 48 h, 48 h

In the case of Nc1ncnc2c1ncn2CCOCP(=O)(O)O [Adefovir], the “Cell viability (MTT) relative to no exposure” value (ciPTEC-OAT1) is given as “significantly affected”, the IC50 (OAT1 [1]) is given as 23 ± 4 µM and the Ki (CHO-OAT1; CHO-OAT1, substrate not given) is given as 23.8 µM. For the same compound, the IC50 (HeLa-OAT1) was 8.1 µM, the IC50 (hOAT1-CHO and HEK-OAT1; [4]) was 1.4 ± 0.7 µM and the IC50 (hOAT1-CHO and HEK-OAT1; [5]) was 0.22 ± 0.08 µM.

For Nc1ccn(C[C@@H](CO)OCP(=O)(O)O)c(=O)n1 [Cidofovir], the IC50 (OAT1 [1]) is given as 71 ± 34 µM, the IC50 (hOAT1-CHO and HEK-OAT1; [4]) is given as 3 ± 1 µM and the IC50 (hOAT1-CHO and HEK-OAT1; [5]) is given as 0.5 ± 0.2 µM.

For CN/C(=N/CCSCc1nc[nH]c1C)NC#N [Cimetidine], the IC50 (OAT1 [1]) was 654 ± 291 µM, the IC50 (OAT3) was 215 ± 162 µM and the “Inhibition of ASP+ uptake at OCT2” value (OCT2) was “significant inhibition”. For the same compound, the IC50 (Xenopus-OAT3) was 53 µM and the IC50 (CHO-OAT3) was 79 µM.

For C[C@H](Cn1cnc2c(N)ncnc21)OCP(=O)(O)O [Tenofovir], the “Cell viability (MTT) relative to no exposure” value (ciPTEC-OAT1) was “significantly affected”, the IC50 (ciPTEC-OAT1; ciPTEC-OAT1, 24 h exposure, read-out: Inhibitory potency on cell viability (MTT), 24 h) was 114 ± 25 µM and the IC50 (ciPTEC-OAT1; ciPTEC-OAT1, 72 h exposure, read-out: Inhibitory potency on cell viability (MTT), 72 h) was 223 ± 67 µM. The IC50 (ciPTEC-OAT1; read-out: Inhibitory potency on cell viability (MTT), 48 h, ciPTEC-OAT1, 48 h exposure) was 189 ± 48 µM, the “Cell viability (MTT) relative to no exposure” value (ciPTEC-OAT3; ciPTEC-OAT3, 1 mM, 48 h) was “slightly decreased” and the “DDI index Cmax/IC50” value (OAT1 [1]) was 0.014 and 0.019. For the same compound, the IC50 (OAT1 [1]) was 42 ± 8 µM, the Ki (CHO-OAT1; Ref. 35, substrate and cell line not given) was 33.8 µM and the IC50 (HeLa-OAT1) was 29.3 µM. For the same compound, the IC50 (hOAT1-CHO and HEK-OAT1; [4]) was 21 ± 7 µM and the IC50 (hOAT1-CHO and HEK-OAT1; [5]) was 10 ± 2 µM.

For Cc1cn([C@H]2C[C@H](N=[N+]=[N-])[C@@H](CO)O2)c(=O)[nH]c1=O [Zidovudine], the “Cell viability with efflux inhibitors” value (ciPTEC-OAT1; ciPTEC-OAT1, 10×Cmax (50 μM), with MK571 and KO143) was “did not affect cell viability”, the “Cell viability as determined by the MTT assay” value (ciPTEC-OAT1; ciPTEC-OAT1 and ciPTEC-OAT3, exposure for 24-72 h) was “did not affect cell viability” and the “Cell viability with efflux inhibitors” value (ciPTEC-OAT3; ciPTEC-OAT3, 10×Cmax (50 μM), with MK571 and KO143) was “did not affect cell viability”. The “Cell viability with efflux inhibitors” value (ciPTEC parent) was “did not affect cell viability” and the “Fraction eliminated via the urine without metabolic alterations” value [2] was 23%.

O=C1OC2(c3ccc(O)cc3Oc3cc(O)ccc32)c2ccccc21 [fluorescein] showed a Km (OAT1 [1]) of 0.8 ± 0.1 µM and a Km (OAT3) of 3.7 ± 0.5 µM.

Work on Nc1ccc(C(=O)NCC(=O)O)cc1 [para-aminohippuric acid] yielded an IC50 (OAT3) of 152 ± 3 µM.

With “EGF: Epidermal growth factor (NSDSECPLSHDGYCLHDGVCMYIEALDKYACNCVVGYIGERCQYRDLKWWELR; Epidermal growth factor; UniProt P01133 971-1023, looked up)” the OAT1 gene expression (OAT1 [3]) was “significantly increased”.

In the case of estrone sulfate, the IC50 (OAT3) is given as 2.1 ± 0.3 µM and the IC50 (Xenopus-OAT3) is given as 3 µM.

Reference: US20180362935A1, “A renal cell line with stable transporter expression” (Stichting Katholieke Universiteit, priority 2015, published 2018)
